In ChEMBL document CHEMBL1759890, “3,5-Disubstituted-indole-7-carboxamides: the discovery of a novel series of potent, selective inhibitors of IKK-β” (Bioorg Med Chem Lett, 2011):

Target: T1, Inhibitor of nuclear factor kappa-B kinase subunit beta (Homo sapiens, UniProt O14920)
T1 sequence (O14920 whole entry): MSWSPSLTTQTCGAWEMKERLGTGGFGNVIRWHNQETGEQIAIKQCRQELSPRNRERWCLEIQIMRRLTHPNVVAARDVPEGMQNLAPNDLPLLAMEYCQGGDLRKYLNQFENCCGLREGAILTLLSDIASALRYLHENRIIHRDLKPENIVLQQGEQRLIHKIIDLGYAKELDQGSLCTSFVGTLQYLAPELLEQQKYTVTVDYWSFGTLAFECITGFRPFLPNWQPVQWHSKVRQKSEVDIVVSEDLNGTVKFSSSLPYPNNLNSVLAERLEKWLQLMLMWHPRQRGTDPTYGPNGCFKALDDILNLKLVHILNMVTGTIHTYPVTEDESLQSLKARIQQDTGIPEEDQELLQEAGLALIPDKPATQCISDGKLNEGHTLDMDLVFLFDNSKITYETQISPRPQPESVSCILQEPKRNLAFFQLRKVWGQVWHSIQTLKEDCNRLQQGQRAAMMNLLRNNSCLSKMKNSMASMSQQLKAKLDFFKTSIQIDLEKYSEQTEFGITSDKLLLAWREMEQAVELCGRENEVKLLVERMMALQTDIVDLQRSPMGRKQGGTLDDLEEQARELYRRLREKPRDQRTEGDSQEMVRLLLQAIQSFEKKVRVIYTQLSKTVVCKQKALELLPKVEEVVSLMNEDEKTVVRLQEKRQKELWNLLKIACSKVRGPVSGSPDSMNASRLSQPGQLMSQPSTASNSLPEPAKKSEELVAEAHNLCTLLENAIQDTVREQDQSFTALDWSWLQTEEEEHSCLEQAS
Assay: Inhibition of IKK-beta

- IC50: 12.6 nM
Compound: CCCS(=O)(=O)N1CCC(c2c[nH]c3c(C(N)=O)cc(-c4ccccc4)cc23)CC1
